In one test the test system is mice. Description: analgesic activity, reaction time of mice on a hot plate. Format: in vivo. The settings on record: Mus musculus; male mice; oral; hot plate 55±0.5° C.; combined reaction time average at 30, 60 and 90 minutes. How it is done:
The method determines the reaction time of mice dropped onto a hot plate maintained at 55±0.5° C. Six groups of male mice (5 mice/group) weighing between 20-30 grams are utilized. The initial reaction time of these mice is determined once, and the reaction time of each group is then averaged. The mice are then administered the vehicle and/or the compound to be tested by the oral, intraperitoneal or subcutaneous route. The average reaction time of each group is determined again at 30, 60 and 90 minutes after compound administration and is compared to controls. Reaction time is recorded as percent changes from control. All groups are averaged before and after treatment. A combined reaction time average (recorded as percent change of reaction time threshhold from controls) for all three periods is plotted against does on graph paper, and a curve is drawn. The ED50 is read from this curve.

The test system of test [1] is Albino rats of Hart Strain. Put plainly: anti-inflammatory activity, volume of edema after Mycobacterium butyricum adjuvant injected into the right hind foot. Type of test: in vivo. The settings on record: Rattus norvegicus, po, dosage of 0.03 gm. p.o., treated daily for 5 consecutive days, edema 96 hours after adjuvant, read-out: ED30 (dose required to produce a 30% reduction in edema). How it is done:
The test animals are given 10 mls. of vehicle^1, which contains the test compound per kg. of body weight. The animals are treated daily for 5 consecutive days. Three hours after the first treatment, 0.05 ml. of an 0.5% suspension of heat killed dessiccated Mycobacterium butyricum in U.S.P. olive oil, which has been steam sterilized for 30 minutes, is injected into the right hind foot of each rat. The paw volume is measured immediately after the injection of the adjuvant and again 96 hours later. The difference is recorded as volume of edema. The paw volume is measured by immersion of the paw into a column of mercury to an ink mark exactly at the level of the lateral malleolus. Percent inhibition is calculated by dividing the average control edema minus the average treatment edema by the average control edema times 100. The percent inhibition is plotted against dose on semi-logarithmic probability paper and the dose required to produce a 30% reduction in edema is estimated therefrom and is expressed as ED30.
^1 Hilgar, A. G. and Hummel, D. J.: Endocrine Bioassay Data. No. 1, p. 15, August 1964 (Cancer Chemotherapy National Service Center, N.I.H.)

What is called ED50 is the dose that gives a 50% effect, or the effect in half of the subjects. `O=C(O)Cc1ccc2c(c1)sc1ccc(Cl)cc12` [8-chloro-dibenzothiophene-3-acetic acid]: the ED50 in the test on mice was determined as 120 mg/kg. For the same molecule, in test [1], the ED30 came out at 1.8 mg/kg/day.
